Assay results published in patent US10858335B2 (Rigel Pharmaceuticals, Inc., priority 2014, dated 2020).

Tested on: GDF8 signaling (p-SMAD-3 (Ser423/425))
Experiment: AlphaScreen SureFire SMAD3 (p-Ser423/425) assay, GDF8-stimulated cells (GDF pSMAD)
Format: cell-based
Conditions: Mus musculus, MPC-11, GDF8-stimulated pSMAD3, MPC11; tested as the salt form given; read-out: GDF pSMAD (MPC11) (μM), inhibition of GDF8 signaling

| Structure (SMILES) | IC50 [µM] |
| --- | --- |
| Nc1ncnc2ccc(-c3cccnc3-c3ccccc3F)cc12 [compound 1003, 6-(2-(2-fluorophenyl)pyridin-3-yl)quinazolin-4-amine] | 7.27 |
| CN1CCN(CCCNc2ncnc3ccc(-c4cccnc4-c4cc(Cl)ccc4F)cc23)CC1 [compound 1046] | 1.63 |
| Nc1ncnc2ccc(-c3cccnc3-c3cc(Cl)cc(F)c3F)cc12 [compound 1035, 6-(2-(5-chloro-2,3-difluorophenyl)pyridin-3-yl)quinazolin-4-amine] | 0.161 |
| Cc1cc(F)c(F)cc1-c1ncccc1-c1ccc2ncnc(N)c2c1 [compound 987, 6-(2-(4,5-difluoro-2-methylphenyl)pyridin-3-yl)quinazolin-4-amine] | 8 |
| Nc1ncnc2ccc(-c3cccnc3-c3ccc4occc4c3)cc12 [compound 1083] | 0.309 |
| Nc1ncnc2ccc(-c3cccnc3-c3cccc(O)c3)cc12 [compound 977, 3-(3-(4-aminoquinazolin-6-yl)pyridin-2-yl)phenol] | 1 |

Same assay, conditions: Mus musculus, MPC-11, MPC11; GDF8-stimulated; p-SMAD3 AlphaScreen; read-out: GDF pSMAD (MPC11) (inhibition of GDF8 signaling)

| Structure (SMILES) | IC50 [µM] |
| --- | --- |
| Cc1cccc(-c2ncc(N)cc2-c2ccc3ncsc3c2)c1 [Compound 20, 5-(Benzo[d]thiazol-6-yl)-6-m-tolylpyridin-3-amine] | 0.104 |
| Cc1cccc(-c2ncccc2-c2ccc3ncn(CCN4CCOCC4)c3c2)c1 [Compound 36, 1-(2-Morpholinoethyl)-6-(2-m-tolylpyridin-3-yl)-1H-benzo[d]imidazole] | 19.7 |
| Fc1cc(F)c(-c2ncccc2-c2ccc3nccn3n2)cc1Cl [compound 938, 6-(2-(5-Chloro-2,4-difluorophenyl)pyridin-3-yl)imidazo[1,2-b]pyridazine] | 0.242 |
| COc1cccc(-c2ncccc2-c2ccc3ncnc(N)c3c2)c1 [compound 451, 6-(2-(3-Methoxyphenyl)pyridin-3-yl)quinazolin-4-amine] | 0.115 |
| COc1cc(NC(=O)c2cnc3ccc(-c4cccnc4-c4ccc(F)c(C)c4)cn23)cc(OC)c1OC [compound 573, 6-(2-(4-Fluoro-3-methylphenyl)pyridin-3-yl)-N-(3,4,5-trimethoxyphenyl)imidazo[1,2-a]pyridine-3-carboxamide] | 1.21 |
| Cc1cc(-c2ncccc2-c2ccc3ncc(C(=O)NCC4CCN(C)CC4)n3c2)ccc1F [compound 651, 6-(2-(4-Fluoro-3-methylphenyl)pyridin-3-yl)-N-((1-methylpiperidin-4-yl)methyl)imidazo[1,2-a]pyridine-3-carboxamide] | 1.18 |
| FC(F)(F)c1cccc(-c2ncccc2-c2ccc3ncccc3n2)c1 [compound 538, 2-(2-(3-(Trifluoromethyl)phenyl)pyridin-3-yl)-1,5-naphthyridine] | 0.474 |
| Cc1cc(-c2ncccc2-c2ccc3cnc(C(=O)NCCCN4CCCC4)n3c2)ccc1F [compound 273, 6-(2-(4-Fluoro-3-methylphenyl)pyridin-3-yl)-N-(3-(pyrrolidin-1-yl)propyl)imidazo[1,5-a]pyridine-3-carboxamide] | 9.79 |
| CC(C)c1cccc(-c2ncccc2-c2cnc3[nH]ncc3c2)c1 [Compound 167, 5-(2-(3-Isopropylphenyl)pyridin-3-yl)-1H-pyrazolo[3,4-b]pyridine] | 17.5 |
| Fc1ccc(-c2ncccc2-c2ccc3ncsc3n2)cc1Cl [compound 305, 5-(2-(3-Chloro-4-fluorophenyl)pyridin-3-yl)thiazolo[5,4-b]pyridine] | 0.175 |
| Cc1cc(O)cc(-c2ncccc2-c2ccc3ncnc(N)c3c2)c1 [compound 495, 3-(3-(4-Aminoquinazolin-6-yl)pyridin-2-yl)-5-methylphenol] | 0.247 |
| Cc1cc(-c2ncc(NCc3cccnc3C)cc2-c2ccc3ncsc3c2)ccc1F [compound 331, 5-(Benzo[d]thiazol-6-yl)-6-(4-fluoro-3-methylphenyl)-N-((2-methylpyridin-3-yl)methyl)pyridin-3-amine] | 1.33 |
| Cc1cccc(-c2ncccc2-c2ccc3ncc(C(=O)NCCCN4CCCC4=O)n3c2)c1 [compound 724, N-(3-(2-Oxopyrrolidin-1-yl)propyl)-6-(2-(m-tolyl)pyridin-3-yl)imidazo[1,2-a]pyridine-3-carboxamide] | 0.537 |
| COC(=O)c1cnc2ccc(-c3cccnc3-c3ccc(F)c(C)c3)cn12 [compound 685, Methyl 6-(2-(4-fluoro-3-methylphenyl)pyridin-3-yl)imidazo[1,2-a]pyridine-3-carboxylate] | 0.15 |
| Cc1cc(-c2ncccc2-c2ccn3ncc(C(=O)NCCO)c3c2)ccc1F [compound 707, 5-(2-(4-Fluoro-3-methylphenyl)pyridin-3-yl)-N-(2-hydroxyethyl)pyrazolo[1,5-a]pyridine-3-carboxamide] | 0.222 |
| O=c1[nH]cnc2ccc(-c3cccnc3-c3cc(Cl)c(F)cc3F)cc12 [compound 823, 6-(2-(5-Chloro-2,4-difluorophenyl)pyridin-3-yl)quinazolin-4(3H)-one] | 0.214 |
| Clc1cccc(-c2ncccc2-c2ccc3nccnc3n2)c1 [compound 739, 6-(2-(3-Chlorophenyl)pyridin-3-yl)pyrido[2,3-b]pyrazine] | 2.32 |
| Cc1cc(-c2ncccc2-c2ccc3ncc(C(=O)Nc4ccc(S(N)(=O)=O)cc4)n3c2)ccc1F [compound 617, 6-(2-(4-Fluoro-3-methylphenyl)pyridin-3-yl)-N-(4-sulfamoylphenyl)imidazo[1,2-a]pyridine-3-carboxamide] | 10.8 |
| Cc1cc(-c2ncccc2-c2ccc3ncc(C(=O)NCCCN4CCOCC4)n3c2)ccc1F [compound 609, 6-(2-(4-Fluoro-3-methylphenyl)pyridin-3-yl)-N-(3-morpholinopropyl)imidazo[1,2-a]pyridine-3-carboxamide] | 0.319 |

| Structure (SMILES) | IC50 [µM] |
| --- | --- |
| Fc1ccc(-c2ncccc2-c2ccc3nccnc3n2)cc1Cl [compound 740, 6-(2-(3-Chloro-4-fluorophenyl)pyridin-3-yl)pyrido[2,3-b]pyrazine] | 9.5 |
| Cc1cnc(-c2ccc(F)c(Cl)c2)c(-c2ccn3ncnc3c2)c1 [compound 864, 7-(2-(3-Chloro-4-fluorophenyl)-5-methylpyridin-3-yl)-[1,2,4]triazolo[1,5-a]pyridine] | 1.54 |
| CC(C)c1cccc(-c2ncc(N)cc2-c2ccc3[nH]ncc3c2)c1 [Compound 16, 5-(1H-Indazol-5-yl)-6-(3-isopropylphenyl)pyridin-3-amine] | 6.34 |
| CNC(=O)COCc1cnc(-c2ccc(F)c(C)c2)c(-c2ccc3nccnc3c2)c1 [compound 232, 2-((6-(4-Fluoro-3-methylphenyl)-5-(quinoxalin-6-yl)pyridin-3-yl)methoxy)-N-methylacetamide] | 10.6 |
| CCn1ncc2cc(-c3cccnc3-c3ccc(F)c(C)c3)ccc21 [Compound 184, 1-Ethyl-5-(2-(4-fluoro-3-methylphenyl)pyridin-3-yl)-1H-indazole] | 12.9 |
| Fc1cc(F)c(-c2ncccc2-c2ccc3ncccc3c2)cc1F [compound 696, 6-(2-(2,4,5-Trifluorophenyl)pyridin-3-yl)quinoline] | 2.11 |
| Fc1ccc(-c2ncccc2-c2ccc3ncsc3c2)cc1F [compound 661, 6-(2-(3,4-Difluorophenyl)pyridin-3-yl)benzo[d]thiazole] | 1.84 |
| Cc1cc(-c2ncccc2-c2ccc3ncc(C(=O)NC4CCNCC4)n3c2)ccc1F [compound 652, 6-(2-(4-Fluoro-3-methylphenyl)pyridin-3-yl)-N-(piperidin-4-yl)imidazo[1,2-a]pyridine-3-carboxamide] | 3.78 |
| Cc1cc(-c2ncccc2-c2ccc3ncnc(Nc4cccc(C(N)=O)c4)c3c2)ccc1F [compound 410, 3-((6-(2-(4-Fluoro-3-methylphenyl)pyridin-3-yl)quinazolin-4-yl)amino)benzamide] | 4.13 |
| Fc1cc(-c2ncccc2-c2ccc3ncsc3c2)cc(F)c1F [compound 666, 6-(2-(3,4,5-Trifluorophenyl)pyridin-3-yl)benzo[d]thiazole] | 3.97 |
| Fc1cccc(-c2ncccc2-c2ccc3[nH]ncc3c2)c1 [Compound 65, 5-[2-(3-Fluorophenyl)pyridin-3-yl]-1H-indazole] | 2.24 |
| Cc1cc(-c2ncccc2-c2ccc3c(=O)nc[nH]c3c2)ccc1F [compound 348, 7-(2-(4-Fluoro-3-methylphenyl)pyridin-3-yl)quinazolin-4(1H)-one] | 1.3 |
| Cc1cc(-c2ncccc2-c2ccn3ncc(C(=O)NCCC45CCCN4CCC5)c3c2)ccc1F [compound 805, 5-(2-(4-Fluoro-3-methylphenyl)pyridin-3-yl)-N-(2-(tetrahydro-1H-pyrrolizin-7a(5H)-yl)ethyl)pyrazolo[1,5-a]pyridine-3-carboxamide] | 0.953 |
| Fc1cnc(-c2cccc(C(F)(F)F)c2)c(-c2ccn3ncnc3c2)c1 [compound 863, 7-(2-(3-((Difluoro-13-methyl)-12-fluoranyl)phenyl)-5-fluoropyridin-3-yl)-[1,2,4]triazolo[1,5-a]pyridine] | 5.89 |
| Cc1cc(-c2ncccc2-c2ccc3nccnc3n2)ccc1F [compound 738, 6-(2-(4-Fluoro-3-methylphenyl)pyridin-3-yl)pyrido[2,3-b]pyrazine] | 1.38 |
| O=C1CCCN1CCCOc1ncnc2ccc(-c3cccnc3-c3ccc(F)c(Cl)c3)cc12 [compound 436, 1-(3-((6-(2-(3-Chloro-4-fluorophenyl)pyridin-3-yl)quinazolin-4-yl)oxy)propyl)pyrrolidin-2-one] | 1.18 |
| Cc1cc(-c2ncccc2-c2ccn3ncc(C(=O)NCCCN4CCOCC4)c3c2)ccc1F [compound 672, 5-(2-(4-Fluoro-3-methylphenyl)pyridin-3-yl)-N-(3-morpholinopropyl)pyrazolo[1,5-a]pyridine-3-carboxamide] | 0.273 |
| Cc1cc(-c2ncc(NC(=O)c3cccnc3)cc2-c2ccc3ncsc3c2)ccc1F [compound 315, N-(5-(Benzo[d]thiazol-6-yl)-6-(4-fluoro-3-methylphenyl)pyridin-3-yl)nicotinamide] | 0.749 |
| Cc1cc(-c2ncccc2-c2ccc3ncccc3n2)ccc1F [compound 535, 2-(2-(4-Fluoro-3-methylphenyl)pyridin-3-yl)-1,5-naphthyridine] | 0.504 |
